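Method: 48-hour compound exposure of cells in 96-well plates, five concentrations, linear interpolation of endpoints. At the GI50, growth is halved.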 Active and inactive are the calls of the source. Rule as the data show it: active = GI50 up to about 1.1 µM and inactive = higher.
Key:
Assay in all cases: NCI tumour cell line growth inhibition, 48 h
NCI-H522 = tested on: NCI-H522
OVCAR-3 = tested on: OVCAR-3
SK-MEL-5 = tested on: SK-MEL-5
U-251 = tested on: U-251
SK-MEL-28 = tested on: SK-MEL-28
NCI-H23 = tested on: NCI-H23
HCC 2998 = tested on: HCC 2998
COLO 205 = tested on: COLO 205
RPMI-8226 = tested on: RPMI-8226
MDA-N = tested on: MDA-N
HCT-116 = tested on: HCT-116
MDA-MB-435 = tested on: MDA-MB-435
RXF 393 = tested on: RXF 393
SF-295 = tested on: SF-295
A549 = tested on: A549
A498 = tested on: A498
BT-549 = tested on: BT-549
HOP-62 = tested on: HOP-62
SK-MEL-2 = tested on: SK-MEL-2

Row | SMILES | GI50 (NCI-H522) | GI50 (OVCAR-3) | GI50 (SK-MEL-5) | GI50 (U-251) | GI50 (SK-MEL-28) | GI50 (NCI-H23) | GI50 (HCC 2998) | GI50 (COLO 205) | GI50 (RPMI-8226) | GI50 (MDA-N) | GI50 (HCT-116) | GI50 (MDA-MB-435) | GI50 (RXF 393) | GI50 (SF-295) | GI50 (A549) | GI50 (A498) | GI50 (BT-549) | GI50 (HOP-62) | GI50 (SK-MEL-2)
1 | CC(=O)O[C@@H]1[C@H](OC2CCCCC2(c2ccccc2)c2ccccc2)O[N+]([O-])=CC12CCCCC2 (stereo partly drawn) | 18.6 µM (inactive) | 14.9 µM (inactive) | 15 µM (inactive) | 17 µM (inactive) | 13.8 µM (inactive) | 10.2 µM (inactive) | 17.1 µM (inactive) | 16.4 µM (inactive) | 33 µM (inactive) | 20.2 µM (inactive) | 17.6 µM (inactive) | 15.6 µM (inactive) | 17.8 µM (inactive) | 15.7 µM (inactive) | 17.7 µM (inactive) | 16.3 µM (inactive) | – | – | –
2 | Cc1ccc2nc(-c3ccccc3)c(N=O)n2c1 | 36.1 µM (inactive) | 32.4 µM (inactive) | 46.3 µM (inactive) | 38.9 µM (inactive) | 45.9 µM (inactive) | 36.1 µM (inactive) | – | 35.7 µM (inactive) | 36.1 µM (inactive) | – | 35.7 µM (inactive) | 40 µM (inactive) | > 100 µM (inactive) | 87.1 µM (inactive) | 32.7 µM (inactive) | > 100 µM (inactive) | 37.1 µM (inactive) | 56 µM (inactive) | > 100 µM (inactive)
3 | NC1CSc2ccccc2NC1=O (stereo not drawn) | > 100 µM (inactive) | > 100 µM (inactive) | > 100 µM (inactive) | > 100 µM (inactive) | > 100 µM (inactive) | > 100 µM (inactive) | > 100 µM (inactive) | > 100 µM (inactive) | > 100 µM (inactive) | > 100 µM (inactive) | > 100 µM (inactive) | > 100 µM (inactive) | > 100 µM (inactive) | > 100 µM (inactive) | > 100 µM (inactive) | – | > 100 µM (inactive) | > 100 µM (inactive) | > 100 µM (inactive)
4 | CCOC(=O)C1NCCc2c1[nH]c1ccccc21 (stereo not drawn) | > 10 µM (inactive) | > 10 µM (inactive) | > 10 µM (inactive) | – | > 10 µM (inactive) | > 10 µM (inactive) | > 10 µM (inactive) | > 10 µM (inactive) | > 10 µM (inactive) | > 10 µM (inactive) | – | > 10 µM (inactive) | > 10 µM (inactive) | > 10 µM (inactive) | > 10 µM (inactive) | – | > 10 µM (inactive) | > 10 µM (inactive) | –
5 | CO/N=C(/C)c1cccc(Nc2nc3ccccc3c3[nH]c4ccccc4c23)c1 | 2.99 µM (inactive) | 5.7 µM (inactive) | 5.62 µM (inactive) | 13.5 µM (inactive) | – | 10.3 µM (inactive) | – | 7.33 µM (inactive) | – | 8.3 µM (inactive) | 3.16 µM (inactive) | 7.41 µM (inactive) | – | 3.5 µM (inactive) | 8.75 µM (inactive) | – | – | 9.66 µM (inactive) | 10.7 µM (inactive)
6 | C=CCOC(=O)Cn1cnc2c(N)ncnc21 | – | – | > 100 µM (inactive) | > 100 µM (inactive) | > 100 µM (inactive) | > 100 µM (inactive) | > 100 µM (inactive) | > 100 µM (inactive) | > 100 µM (inactive) | > 100 µM (inactive) | > 100 µM (inactive) | > 100 µM (inactive) | – | > 100 µM (inactive) | > 100 µM (inactive) | > 100 µM (inactive) | – | > 100 µM (inactive) | > 100 µM (inactive)
7 | CN(Cc1nc2c(N)nc(N)nc2nc1N)c1ccc(C(=O)NC(CCC(=O)O)C(=O)O)cc1 (stereo not drawn) | > 33.6 µM (inactive) | > 100 µM (inactive) | 1.55 µM (inactive) | 0.494 µM (active) | > 76.4 µM (inactive) | 0.544 µM (active) | 3.65 µM (inactive) | > 100 µM (inactive) | > 75.2 µM (inactive) | 0.0442 µM (active) | < 0.01 µM (active) | 0.0277 µM (active) | > 100 µM (inactive) | 0.162 µM (active) | – | – | > 100 µM (inactive) | 0.231 µM (active) | > 100 µM (inactive)
8 | COC(=O)/C=C\S/C(=C(/c1ccccc1)n1ccc(C(=O)OC)n1)c1ccccc1 | 24.5 µM (inactive) | – | 29.5 µM (inactive) | 13 µM (inactive) | 28.6 µM (inactive) | 22.8 µM (inactive) | 41 µM (inactive) | > 100 µM (inactive) | 38.9 µM (inactive) | – | 20.5 µM (inactive) | 45.4 µM (inactive) | 13.1 µM (inactive) | 20.3 µM (inactive) | 36.6 µM (inactive) | – | > 100 µM (inactive) | 15.8 µM (inactive) | 15.7 µM (inactive)
9 | O=C1CCCC2=C1CC1=C(CCCC1=O)N2c1ccc([N+](=O)[O-])cc1 | – | > 100 µM (inactive) | > 100 µM (inactive) | > 100 µM (inactive) | > 100 µM (inactive) | > 100 µM (inactive) | > 100 µM (inactive) | – | > 100 µM (inactive) | – | – | – | > 100 µM (inactive) | – | > 100 µM (inactive) | > 100 µM (inactive) | > 100 µM (inactive) | – | –

Reference: ChEMBL document CHEMBL1201862, “PubChem BioAssay data set” (2004)
